Experiment in all cases: NCI anticancer screen, dose series, 48 h
Assay [1] has as its system HT29 colon.
The test system of assay [2] is A498 renal.
The test system of assay [3] is TK-10 renal.
The test system of assay [4] is DU-145 prostate.
Assay [5] relates to SW-620 colon.
In assay [6] the test system is NCI-H226 lung.
The subject of assay [7] is HOP-92 NSCLC.
For assay [8], the system named is NCI-H522 lung.
The test system of assay [9] is SK-MEL-28 melanoma.
Assay [10] concerns NCI-H23 lung.

“And” between values parts separate entries of the source, which are not always exact repeats. Equal values may be shown once.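 Cultured in 96-well plates, cells were exposed to test compound for 48 hours across five concentrations. GI50 marks 50% less growth. TGI: concentration producing complete growth inhibition.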 A value given as a limit tells only on which side of the number the result lay.

GI50 and TGI data for 15 compounds are collected here from PubChem BioAssay (NCI).

Regarding `C[C@H](CCCNCCCNCCCN)[C@H]1CC[C@H]2[C@@H]3[C@H](OCCCN)C[C@H]4C[C@H](OCCCN)CC[C@]4(C)[C@H]3C[C@H](OCCCN)[C@]12C`, the GI50 in assay [1] is 0.821 µM; in [2], greater than 100 µM; in assay [3] it was 2.18 µM; in assay [4] it was 3.34 µM; in [5], 0.98 µM; in assay [7] it was 0.584 µM. Moreover, the GI50 is 11.1 µM in assay [8], 0.573 µM in assay [9] and 1.48 µM in assay [10]. Besides, the TGI in assay [1] is 13.8 µM; in assay [2], greater than 100 µM; in assay [3] it was 51.6 µM; in [4], 21.3 µM; in assay [5] it was 8.2 µM; in [6], greater than 76.7 µM. For the same compound, the TGI in [7] is 11.9 µM; in [8] it was 58.6 µM; in assay [9] it was 4.13 µM; in assay [10], 10.8 µM.

In the case of `Cc1cc(Oc2ccc3nc(COc4ccc(CC5SC(=O)NC5=O)cc4)n(C)c3c2)cc(C)c1N` (stereo not drawn), the GI50 in assay [1] is 45.2 µM; in assay [2], greater than 43.4 µM; in [3], greater than 52.6 µM; in [4], 45.8 µM; in assay [5], 30.6 µM; in assay [6], 46.8 µM. The GI50 in assay [7] was greater than 34.4 µM; in assay [8] it was 33.2 µM; in [9] it was 49.7 µM; in assay [10], 24.2 µM. In addition, the TGI in [1] was greater than 100 µM; in assay [2] it was greater than 100 µM; in assay [3], greater than 91.6 µM; in assay [4] it was greater than 100 µM; in assay [5], greater than 100 µM; in assay [6], greater than 95.7 µM. The TGI was greater than 87.5 µM in assay [7], greater than 73.9 µM in [8], greater than 100 µM in [9] and greater than 72.2 µM in assay [10].

In the case of `COC(=O)/C=C/c1cn(C(C)=O)c2ccc(Br)cc12`, the GI50 is 27.5 µM in assay [1]; 20.9 µM in assay [2]; 24.7 µM in [3]; 32.5 µM in assay [4]; 35.6 µM in [5]; 20.9 µM in assay [6]. In addition, the GI50 is 14.7 µM in assay [7], 21 µM in assay [8], 49 µM in [9] and 27.9 µM in assay [10]. Moreover, the TGI in assay [1] was greater than 100 µM; in [2] it was 45.7 µM; in [3] it was 71.4 µM; in assay [4], greater than 100 µM; in assay [5], greater than 100 µM; in assay [6], greater than 93.4 µM. Besides, the TGI in assay [7] is greater than 60.7 µM; in assay [8], 97.5 µM; in assay [9] it was greater than 100 µM; in assay [10], greater than 100 µM.

For the compound `COc1ccc2nc3ccccc3c(NCCCN(C)CCCl)c2c1`, the TGI in assay [1] stood at 2.66 µM; in assay [2], 2.42 µM; in assay [3], 4.08 µM; in [4] it was 1.48 µM; in assay [5], 1.48 µM; in assay [6], 1.62 µM. The TGI in assay [7] came to 1.24 µM; in assay [8], 1.15 µM; in assay [9] it was 2.01 µM; in [10], 1.2 µM.

On to `COC(=O)[C@H](Cc1ccc(O)cc1)NC(=O)[C@@H](OC)[C@@H]1Cc2cc3cc(OC4CC(OC5CC(O)C(O)C(C)O5)C(O)C(C)O4)c(C)c(O)c3c(O)c2C(=O)[C@H]1OC1CC(OC2CC(OC3CC(C)(O)C(O)C(C)O3)C(O)C(C)O2)C(O)C(C)O1` (stereo partly drawn), for which the GI50 was 0.102 µM in assay [1]; 0.0892 µM in assay [2]; 0.793 µM in assay [3]; 0.164 µM in assay [4]; 0.0902 µM in assay [5]; 0.0759 µM in [6]. Also, the GI50 in [7] is 0.0387 µM; in [8], 0.0584 µM; in [9], 0.0348 µM; in assay [10], 0.104 µM. Also, the TGI in [1] was greater than 25 µM; in [2], 0.451 µM; in assay [3], greater than 25 µM; in assay [4], greater than 25 µM; in assay [5], greater than 25 µM; in [6] it was 0.582 µM. Besides, the TGI is 7.15 µM in assay [7], greater than 25 µM in [8], 0.598 µM in [9] and greater than 25 µM in assay [10].

For `O=c1c2ccccc2c2ccccc2c(=O)n1Cc1ccc2c(c1)OCO2`, the TGI in assay [1], in assay [2], in assay [3], in [4], in [5] and in assay [6] was greater than 100 µM throughout. In addition, the TGI in assay [7] is greater than 100 µM; in [8], greater than 100 µM; in assay [9] it was greater than 100 µM; in [10], greater than 71.8 µM.

With `Cc1ncsc1-c1ccc(CNC(=O)[C@@H]2C[C@@H](O)CN2C(=O)[C@@H](NC(=O)C2(C#N)CC2)C(C)(C)C)cc1`, the GI50 in assay [1] was greater than 100 µM; in assay [2], 24 µM; in assay [3] it was greater than 100 µM; in assay [4] it was greater than 100 µM; in [5] it was greater than 100 µM; in [6], greater than 100 µM. Moreover, the GI50 is 70.4 µM in assay [7], greater than 100 µM in [8], greater than 100 µM in assay [9] and greater than 100 µM in assay [10]. Also, the TGI in assay [1], in assay [2], in assay [3], in assay [4], in [5] and in assay [6] was greater than 100 µM each time. For the same compound, the TGI in [7], in assay [8], in [9] and in assay [10] was greater than 100 µM in each case.

In the case of `O=C(/C(=C/c1ccc([N+](=O)[O-])cc1)SCc1ccc(F)cc1)c1ccc(Cl)cc1`, the GI50 in assay [1] was 2.38 µM; in [2], greater than 100 µM; in assay [3], 20.1 µM; in assay [4], 38.6 µM; in assay [5], 2.03 µM; in assay [6], 13.7 µM. Further, the GI50 in assay [7] is 19.2 µM; in assay [8] it was 1.88 µM; in [9], 16.4 µM; in assay [10], 11 µM. The TGI is 6.2 µM in assay [1]; greater than 100 µM in [2]; 54.8 µM in [3]; greater than 100 µM in assay [4]; 4.78 µM in assay [5]; 44.5 µM in assay [6]. Moreover, the TGI in assay [7] is greater than 100 µM; in assay [8], 4.44 µM; in [9], 45.8 µM; in assay [10], 68.7 µM.

With `CCc1ccc2c(c1)N(CCO)C1=C(C(=O)OC1)C2c1cccc(Cl)c1` (stereo not drawn), the GI50 was 0.345 µM in assay [1]; 0.36 µM in assay [2]; 6.69 µM in assay [3]; 1.67 µM in [4]; 0.416 µM in assay [5]; 1.35 µM in assay [6]. Besides, the GI50 in assay [7] is 12.7 µM; in assay [8], 0.242 µM; in [9], 0.613 µM; in [10], 0.923 µM. Besides, the TGI in assay [1] turned out to be 11.1 µM; in [2], 11.4 µM; in [3] it was 28.8 µM; in assay [4], 13.5 µM; in assay [5], 21.7 µM; in assay [6] it was 10.5 µM. The TGI in [7] is 27.8 µM; in assay [8], 2.76 µM; in [9] it was 17.5 µM; in assay [10], 20.9 µM.

`O=C(Nc1nc2ccc(F)cc2s1)c1cccnc1Nc1ccc(Cl)cc1`: the GI50 in assay [1] is 3.1 µM; in assay [2], 1.8 µM; in assay [3], 5.11 µM; in assay [4] it was 3.76 µM; in assay [5], 3.04 µM; in assay [6], 2.97 µM. The GI50 is 0.575 µM in assay [7], 2.17 µM in assay [8], 3.47 µM in assay [9] and 1.67 µM in [10]. The TGI in assay [1] was greater than 100 µM; in assay [2] it was 5.46 µM; in assay [3], greater than 100 µM; in assay [4] it was greater than 100 µM; in assay [5], greater than 100 µM; in assay [6] it was greater than 100 µM. For the same compound, the TGI in assay [7] is 3.34 µM; in assay [8] it was greater than 24.2 µM; in assay [9] it was greater than 79.3 µM; in [10] it was 8.38 µM.

Consider `O=C(NCc1ccco1)c1ccc(NC2=C(Cl)C(=O)N(Cc3ccccc3)C2=O)cc1`, for which the GI50 in assay [1] was 35 µM; in assay [2], 29.6 µM; in assay [3], 30.7 µM; in assay [4], 15.8 µM; in [5], 51.7 µM; in assay [6], 17.2 µM. Also, the GI50 in assay [7] is 17.7 µM; in assay [8], 19.5 µM; in assay [9], 19.9 µM; in [10], 13.8 µM. Besides, the TGI in assay [1] is greater than 100 µM; in assay [2] it was 62.5 µM; in assay [3], 76.7 µM; in assay [4], 29.2 µM; in assay [5], greater than 100 µM; in [6], 60.8 µM. Further, the TGI in assay [7] turned out to be 36 µM; in assay [8], 57.9 µM; in assay [9] it was 43.4 µM; in [10], 27.5 µM.

Take `O=C(NN=C1CCCCC1)c1[nH]c2ccc(F)cc2c1-c1ccccc1`: the GI50 is 20.9 µM in assay [1]; 38.1 µM in [2]; 91 µM in assay [3]; 92.2 µM in assay [4]; 46.9 µM in [5]; 49.1 µM in [6]. Also, the GI50 in assay [7] was 50.9 µM; in assay [8], 44.1 µM; in assay [9], 27.3 µM; in [10], 33.5 µM. Also, the TGI is 46.5 µM in [1]; greater than 100 µM in [2]; greater than 100 µM in assay [3]; greater than 100 µM in assay [4]; greater than 100 µM in assay [5]; greater than 100 µM in assay [6]. Further, the TGI in [7], in [8], in [9] and in assay [10] was greater than 100 µM throughout.

Regarding `CC1(C)CCC(C)(C)c2c1ccc(O)c2Cc1c(O)ccc2c1C(C)(C)CCC2(C)C`, the TGI came out at 4.4 µM in [1]; 3.43 µM in assay [2]; 3.87 µM in assay [3]; 5.45 µM in assay [4]; 5.05 µM in [5]; 3.88 µM in [6]. Besides, the TGI in [7] was 3.7 µM; in assay [8], 4.04 µM; in [9], 4.93 µM; in assay [10], 4.11 µM.

For `COc1cc(OC)c(NC(=O)c2cc3ccccc3cc2O)cc1Cl`, the GI50 is 4.88 µM in assay [1]; 2.15 µM in [2]; 3.15 µM in assay [3]; 3.72 µM in assay [4]; 3.63 µM in assay [5]; 3.32 µM in [6]. Also, the GI50 in [7] was 1.55 µM; in assay [8] it was 2.56 µM; in [9], 3.6 µM; in assay [10], 2.38 µM. Moreover, the TGI turned out to be 30.1 µM in [1]; 5.57 µM in [2]; 8.57 µM in assay [3]; 38.2 µM in assay [4]; 18.8 µM in assay [5]; 17.7 µM in [6]. The TGI is 4.89 µM in assay [7], 6.12 µM in assay [8], 17.3 µM in assay [9] and 7.61 µM in assay [10].

With `CN(C)CCOC(c1ccccc1)c1ccccc1`, the GI50 is 23.8 µM in assay [1]; 40.9 µM in assay [2]; 45.9 µM in [3]; 40.3 µM in [4]; 35.1 µM in assay [5]; 39.7 µM in assay [6]. Further, the GI50 was 25.6 µM in assay [8], 18.1 µM in assay [9] and 38 µM in assay [10]. The TGI in assay [1] is 45.5 µM and > 100 µM; in [2], 58.4 µM; in assay [3], 59.7 µM and > 100 µM; in assay [4] it was 55.8 µM and > 100 µM; in assay [5], 51.8 µM and > 100 µM; in assay [6] it was 56.4 µM and > 100 µM. In addition, the TGI in assay [7] was 85.7 µM; in assay [8], 44.3 µM and > 100 µM; in assay [9], 35.3 µM and > 100 µM; in assay [10], 53.4 µM and > 100 µM.
